Literature values, collected in patent US20230201385A1, “[…] OF BACTERIA AND VIRUSES” (MULTI-MAGNETICS INCORPORATED, priority 2020, published 2023).

Tests used:
[1] = dog, i.v.
[2] = system: Enterobacterales infections; conditions: murine models

SMILES: O=P([O-])([O-])O.O=P([O-])([O-])O.[89Zr+4] [^89Zr-phosphate]
- Duration of acceptable bone visualization [1]: 20 days
- Mean standard uptake value (SUV) in bone ([1]; averaged over days 8-16): ~10
- Mean standard uptake value (SUV) in kidneys ([1]; averaged over days 8-16): ~3
- Mean standard uptake value (SUV) in liver ([1]; averaged over days 8-16): ~3
- Mean standard uptake value (SUV) in lungs ([1]; averaged over days 8-16): ~3

SMILES: OC[C@@H](O)[C@@H](O)[C@H](O)[C@@H]([18F])CO [^18F-FDS, 2-Deoxy-2[^18F]fluoro-D-sorbitol]
- Accumulation in cells (Enterobacterales): accumulate in Enterobacterales but not in healthy mammalian or cancer cells
- Detection of infections by PET [2]: specifically detect Enterobacterales infections
